In the assay the test system is Methylophilus methylotrophus amidase (acylamide amido hydrolase E.C. No. 3-5-1-4). The experiment in a line: Methylophilus methylotrophus amidase properties (Km). As to conditions: amidase induced in Methylophilus methylotrophus; substrate as named. Type of assay: biochemical.

These results are taken from US4925797A, “Process for the decomposition of acrylamide” (Imperial Chemical Industries plc, priority 1986, dated 1990).

As usually defined, the Km is the substrate concentration at which the rate is half of its maximum. With `CC(N)=O` [Acetamide], the Km was 0.2 mM.

In the case of `C=CC(N)=O` [Acrylamide], the Km amounted to 10 mM.
